In the supplement of paper PMC10331698:
± gives the standard deviation of the averaged measurements.

Key:
Assay in all cases: level (log10 ratio to DMSO vehicle control); higher = higher biomarker level / cell amount than vehicle control
[1] = compound: CCOC(=O)CC(=O)C(F)(F)C(F)(F)F [Ethyl pentafluoropropionyl acetate] (in DMSO)
Method: (§1)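 BioMAP Diversity Plus panel of 12 human primary cell co-culture systems (3C, 4H, LPS, SAg, BT, BF4T, BE3C, CASM3C, HDF3CGF, KF3CT, MyoF, Mphg). Compounds were added 1 h before stimulation and left for 24 h (MyoF 48 h; BT 72 h for soluble read-outs or 6 d for IgG). Biomarkers were read by ELISA, cytotoxicity by SRB, PBMC viability and proliferation by Alamar Blue. Each well value was divided by the mean of 8 DMSO control wells on the same plate and log10 transformed; duplicate blinded samples were tested at 4 concentrations.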

[2] = compound: NS(=O)(=O)C(F)(F)C(F)(F)C(F)(F)C(F)(F)C(F)(F)C(F)(F)C(F)(F)C(F)(F)F [Perfluorooctanesulfonamide] (in DMSO)
Method: as §1

[3] = compound: O=C(O)C(F)(F)OC(F)(F)C(F)(F)OC(F)(F)C(F)(F)OC(F)(F)C(F)(F)C(F)(F)C(F)(F)F [Perfluoro-3,6,9-trioxatridecanoic acid] (in DMSO); settings: 6700 nM
Method: as §1

[4] = compound: O=C(O)C=C(C(F)(F)F)C(F)(F)F [3,3-Bis(trifluoromethyl)-2-propenoic acid] (in DMSO)
Method: as §1

[5] = compound: O=C(O)CCC(F)(C(F)(F)F)C(F)(F)F [4,4-bis(Trifluoromethyl)-4-fluoropropanoic acid] (in DMSO)
Method: as §1

[6] = compound: O=S(=O)(O)C(F)(F)C(F)(F)OC(F)(F)C(F)(F)F [Perfluoro(2-ethoxyethane)sulfonic acid] (in DMSO)
Method: as §1

[7] = compound: O=S(=O)(O)CCC(F)(F)C(F)(F)C(F)(F)C(F)(F)C(F)(F)C(F)(F)C(F)(F)C(F)(F)F [8:2 Fluorotelomer sulfonic acid] (in DMSO)
Method: as §1

Row | Test System | level (log10) ([1]; 6700 nM) | level (log10) ([1]; 20000 nM) | level (log10) ([1]; 60000 nM) | level (log10) ([2]; 6700 nM) | level (log10) ([2]; 20000 nM) | level (log10) [3] | level (log10) ([4]; 6700 nM) | level (log10) ([4]; 20000 nM) | level (log10) ([4]; 60000 nM) | level (log10) ([5]; 6700 nM) | level (log10) ([5]; 20000 nM) | level (log10) ([5]; 60000 nM) | level (log10) ([6]; 6700 nM) | level (log10) ([6]; 20000 nM) | level (log10) ([6]; 60000 nM) | level (log10) ([7]; 6700 nM) | level (log10) ([7]; 20000 nM) | level (log10) ([7]; 60000 nM)
1 | MyoF:alpha-SM Actin | -0.0145 ± 0.03 | -0.0235 ± 0.0078 | -0.019 ± 0.013 | -0.0355 ± 0.037 | -0.63 ± 0.1 | -0.24 ± 0.025 | -0.003 ± 0.054 | -0.01 ± 0.067 | -0.0795 ± 0.044 | 0.0205 ± 0.093 | 0.03 ± 0.095 | 0.0195 ± 0.079 | 0.006 ± 0.025 | 0.0075 ± 0.0078 | -0.017 ± 0.0028 | 0.034 ± 0.02 | 0.001 ± 0.014 | -0.0125 ± 0.025
2 | MyoF:bFGF | -0.0045 ± 0.0064 | 0.0015 ± 0.0021 | 0.0135 ± 0.012 | 0.0115 ± 0.00071 | -0.0145 ± 0.0021 | -0.059 ± 0.03 | 0.0125 ± 0.0064 | 0.0075 ± 0.019 | 0.0325 ± 0.019 | 0.005 ± 0.025 | 0.002 ± 0.023 | 0.0155 ± 0.015 | 0.003 ± 0.0014 | 0.0085 ± 0.0064 | 0.0165 ± 0.0092 | 0.0045 ± 0.012 | 0.006 ± 0.023 | 0.0265 ± 0.0021
3 | lMphg:CCL2/MCP-1 | -0.023 ± 0.045 | -0.0135 ± 0.021 | 0.0125 ± 0.037 | -0.032 ± 0.016 | -0.0485 ± 0.046 | 0.001 ± 0.014 | -0.007 ± 0.0028 | -0.016 ± 0.0028 | -0.078 ± 0.061 | -0.01 ± 0.017 | 0.0105 ± 0.0064 | 0.011 ± 0.017 | -0.01 ± 0.03 | 0.005 ± 0.028 | -0.002 ± 0.0042 | 0.0075 ± 0.019 | -0.019 ± 0.016 | 0.0155 ± 0.00071
4 | lMphg:CCL3/MIP-1alpha | -0.0265 ± 0.026 | -0.0305 ± 0.0078 | 0.0075 ± 0.022 | -0.003 ± 0.016 | 0.023 ± 0.0099 | -0.0245 ± 0.019 | -0.0065 ± 0.071 | -0.0015 ± 0.023 | -0.0075 ± 0.016 | 0.03 ± 0.047 | 0.0255 ± 0.025 | 0.021 ± 0.035 | 0.0145 ± 0.025 | 0.0015 ± 0.0064 | 0.0065 ± 0.021 | 0.0035 ± 0.03 | 0.0095 ± 0.026 | 0.0065 ± 0.032
5 | lMphg:CD40 | -0.0205 ± 0.0092 | -0.0135 ± 0.0092 | 0.003 ± 0.061 | -0.0365 ± 0.016 | -0.0925 ± 0.0092 | -0.0205 ± 0.013 | -0.0255 ± 0.00071 | -0.0545 ± 0.0035 | -0.071 ± 0.014 | 0.0025 ± 0.016 | -0.001 ± 0.041 | -0.031 ± 0.041 | -0.018 ± 0.02 | -0.013 ± 0.037 | -0.0215 ± 0.025 | -0.026 ± 0.023 | -0.052 ± 0.0028 | -0.0995 ± 0.019
